Experiments:
Rattus norvegicus [1] = assay: Diuretic activity in rat at 125 mg/kg; assay type: functional, Urine
Rattus norvegicus [2] = assay: Antiinflammatory activity against carrageenan-induced hind paw edema in rat at 100 mg/kg; assay type: functional

Compound | Activity (Rattus norvegicus [1]) [%] | Activity (Rattus norvegicus [2]) [%]
CCCCCCCCCCCCCCCCCCCCCCCCCCCCCCC [HENTRIACONTANE] | 84 | 30.4
COc1c2ccoc2c(OC)c2oc(=O)ccc12 [ISOPIMPINELLIN] | 84 | 30.4
